# Source: patent publication US5990158A, “Carboxylic acid derivatives, method of manufacturing the same and therapeutic agents containing these compounds” (Kotobuki Seiyaku Co., Ltd., priority 1996, dated 1999)
# What was measured:
# [1] = molecular target: T1, MMP-2 (gelatinase A) (Homo sapiens, UniProt P08253); test: MMP-2 (gelatinase A) inhibitory activity, FITC-labeled type IV collagen degradation; format: biochemical; settings: 50% inhibition of collagen type IV degradation; activated pro MMP-2 from transfected COS-1 cells; 42° C., 4 h
# T1 construct: made in house; host or cells: COS-1 cells transfected with human pro-MMP-2 cDNA (secreted into culture medium)
# T1 sequence (P08253 110-660): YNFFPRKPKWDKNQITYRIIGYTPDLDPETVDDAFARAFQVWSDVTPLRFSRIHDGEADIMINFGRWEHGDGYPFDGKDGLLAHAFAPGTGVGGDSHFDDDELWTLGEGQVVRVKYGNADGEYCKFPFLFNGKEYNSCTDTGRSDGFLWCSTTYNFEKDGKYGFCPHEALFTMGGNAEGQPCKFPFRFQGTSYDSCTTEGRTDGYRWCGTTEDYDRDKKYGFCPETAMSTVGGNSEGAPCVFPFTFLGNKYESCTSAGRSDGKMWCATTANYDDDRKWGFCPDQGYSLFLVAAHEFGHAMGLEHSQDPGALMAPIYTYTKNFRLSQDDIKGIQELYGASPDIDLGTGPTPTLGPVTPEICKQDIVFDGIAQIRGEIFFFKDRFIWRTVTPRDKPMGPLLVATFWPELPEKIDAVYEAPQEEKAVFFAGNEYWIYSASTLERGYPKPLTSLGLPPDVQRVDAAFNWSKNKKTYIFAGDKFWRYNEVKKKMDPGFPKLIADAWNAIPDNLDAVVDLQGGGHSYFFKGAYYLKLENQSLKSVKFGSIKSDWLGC
# Protocol: (§1) Experiment 2: MMP-2 (gelatinase A) and MMP-9 (gelatinase B) inhibitory activities.
# (§2) Pro MMP-2 was obtained from culture medium separated from human pro-MMP-2 cDNA tranfected COS-1 cells. It was activated by 1 mM (p-aminophenyl)mercury acetic acid, and MMP-9, derived human fibrosarcome,was purchased from Yagai Co. Ltd. Inhibition of both enzyme activities were estimated by enzyme assay using type IV collagenase activity assay kit (Yagai Co. Ltd., Biswaz, C. et al., J. Cell.Biochem., 28, 39 (1984)). MMP-2 or MMP-9 (0.01 U/ml), test compound (several concentrations), and FITC-labeled type IV collagen (derived bovine placenta, 25 μg) were incubated in 100 μl of 0.05M Tris - HCl buffer (pH 7.5) containing 200 mM NaCl and 5 mM CaCl2 at 42° C. for 4 h. Inhibitory activity of compound was evaluated by same as that of MMP-1 assay. Unchanged type IV collagen was precipitated by centrifugation, and the degradation percent of substrate was calculated by comparison with a fluorescence intensity of heat denatured substrate as 100%. Inhibition of enzyme activity was expressed as an IC50 value which was the concentration of test compound necessary to produce 50% inhibition of collagen type IV degradation by enzyme.
# [2] = molecular target: T2, MMP-9 (gelatinase B) (Homo sapiens, UniProt P14780); test: MMP-9 (gelatinase B) inhibitory activity, FITC-labeled type IV collagen degradation; format: biochemical; settings: 50% inhibition of collagen type IV degradation; MMP-9 derived from human fibrosarcoma; 42° C., 4 h
# T2 construct: purchased Yagai Co. Ltd; host or cells: human fibrosarcoma
# T2 sequence (P14780 94-707): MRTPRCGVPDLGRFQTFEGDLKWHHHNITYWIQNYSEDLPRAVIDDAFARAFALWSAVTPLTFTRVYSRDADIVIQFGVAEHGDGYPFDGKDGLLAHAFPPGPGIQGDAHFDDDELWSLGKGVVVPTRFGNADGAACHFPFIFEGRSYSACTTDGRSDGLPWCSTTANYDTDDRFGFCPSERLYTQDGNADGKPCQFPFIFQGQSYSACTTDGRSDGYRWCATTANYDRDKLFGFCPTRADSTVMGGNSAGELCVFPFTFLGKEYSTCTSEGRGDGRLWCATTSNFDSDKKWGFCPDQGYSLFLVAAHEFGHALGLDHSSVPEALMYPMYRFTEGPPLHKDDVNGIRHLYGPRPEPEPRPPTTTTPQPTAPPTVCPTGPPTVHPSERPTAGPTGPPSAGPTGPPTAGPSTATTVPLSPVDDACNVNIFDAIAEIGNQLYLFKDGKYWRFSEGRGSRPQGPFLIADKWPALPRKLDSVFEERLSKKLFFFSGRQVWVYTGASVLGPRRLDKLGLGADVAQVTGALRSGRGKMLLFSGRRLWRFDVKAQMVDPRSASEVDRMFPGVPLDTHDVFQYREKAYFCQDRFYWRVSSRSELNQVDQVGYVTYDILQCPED
# Protocol: as §1, §2
IC50 [1] [µM],IC50 [2] [µM],SMILES
0.39,1.3,"CNC(=O)[C@H](Cc1ccccc1)NC(=O)[C@H](CCc1ccc2cccccc1-2)CC(=O)O [Compound 2, N-[(2R)-2-(1'-Carboxymethyl)-4-(azulene-1-yl)butyroyl]-L-phenylalanine N-Methylamide]"
0.24,0.28,"CNC(=O)[C@H](Cc1ccc(OC)cc1)NC(=O)[C@H](CCc1ccc2cccccc1-2)CC(=O)O [Compound 3, (2S)-2-[(2R)-2-(1'-Carboxymethyl)-4-(azulene-1-yl)butyroyl)amino-3-(4-methoxy)phenylpropanoylmethylamide]"
1,0.3,"CNC(=O)[C@@H](NC(=O)[C@H](CCc1ccc2cccccc1-2)CC(=O)O)C(C)(C)C [Compound 4, N-[(2R)-2-(1'-Carboxymethyl)-4-(azulene-1-yl)butyroyl]-L-tert-leucine N-Methylamide]"
> 10,2.8,"CNC(=O)[C@H](Cc1ccccc1)NC(=O)[C@H](CCCc1ccc2cccccc1-2)CC(=O)O [Compound 5, N-[(2R)-2-(1'-Carboxymethyl)-5-(azulene-1-yl)pentanoyl]-L-phenylalanine N-Methylamide]"
1,0.36,"CCOc1ccc(C[C@H](NC(=O)[C@H](CCc2ccc3cccccc2-3)CC(=O)O)C(=O)NC)cc1 [Compound 6, (2S)-2-[(2R)-2-(1'-Carboxymethyl)-4-(azulene-1-yl)butyroyl]amino-3-(4-ethoxy)phenylpropanoyl methylamide]"
> 10,3,"CNC(=O)[C@H](Cc1ccccc1)NC(=O)[C@H](CCCCc1ccc2cccccc1-2)CC(=O)O [Compound 7, N-[(2R)-2-(1'-Carboxymethyl)-6-(azulene-1-yl)hexanoyl]-L-phenylalanine N-Methylamide]"
0.16,0.035,"CNC(=O)[C@H](Cc1ccccc1)NC(=O)[C@H](CCOc1ccc(OC)cc1)CC(=O)O [Compound 8, N-[(2R)-2-(1'-Carboxymethyl)-4-[(4-methoxyphenyl)oxy]butyroyl]-L-phenylalanine N-Methylamide]"
0.049,0.039,"CCOc1ccc(OCC[C@H](CC(=O)O)C(=O)N[C@@H](Cc2ccccc2)C(=O)NC)cc1 [Compound 9, N-[(2R)-2-(1'-Carboxymethyl)-4-[(4-ethoxyphenyl)oxy]butyroyl]-L-phenylalanine N-Methylamide]"
0.05,0.0051,"CNC(=O)[C@H](Cc1ccccc1)NC(=O)[C@H](CCCOc1ccc(OC)cc1)CC(=O)O [Compound 10, N-[(2R)-2-(1'-Carboxymethyl)-5-[(4-methoxyphenyl)oxy]pentanoyl]-L-phenylanine N-Methylamide]"
0.1,0.014,COc1ccc(OCCC[C@H](CC(=O)O)C(=O)N[C@@H](Cc2ccccc2)C(=O)NC(C)(C)C)cc1 [Compound 11]
0.021,0.003,"COc1ccc(OCCC[C@H](CC(=O)O)C(=O)N[C@@H](Cc2ccccc2)C(=O)NCCS(N)(=O)=O)cc1 [Compound 12, 2-[[N-(2R)-2-(1'-Carboxymethyl)-5-[(4-methoxyphenyl)oxy]pentanoyl]-L-phenylalanyl]amino-ethanesulfonamid]"
0.018,0.013,"CCOc1ccc(OCCC[C@H](CC(=O)O)C(=O)N[C@@H](Cc2ccccc2)C(=O)NC)cc1 [Compound 13, N-[(2R)-2-(1'-Carboxymethyl)-5-[(4-ethoxyphenyl)oxy]pentanoyl]-L-phenylalanine N-Methylamide]"
0.16,0.12,CNC(=O)[C@H](Cc1ccccc1)NC(=O)[C@H](CCCCOc1ccc(OC)cc1)CC(=O)O [Compound 14]
0.061,0.42,"CCOc1ccc(OCCCC[C@H](CC(=O)O)C(=O)N[C@@H](Cc2ccccc2)C(=O)NC)cc1 [Compound 15, N-((2R)-2-(1'-Carboxymethyl)-6-[(4-ethoxyphenyl)oxy]hexanoyl]-L-phenylananine N-Methylamide]"
0.18,1,"C=CCOc1ccc(OCCCC[C@H](CC(=O)O)C(=O)N[C@@H](Cc2ccccc2)C(=O)NC)cc1 [Compound 16, N-[(2R)-2-(1'-Carboxymethyl)-6-[(4-allyloxyphenyl)oxy]hexanoyl]-L-phenylananine N-Methylamide]"
0.046,0.013,"CNC(=O)[C@H](Cc1ccc(OC)cc1)NC(=O)[C@H](CCOc1ccc(OC)cc1)CC(=O)O [Compound 17, (2S)-2-[(2R)-2-(1'-Carboxymethyl)-4-[(4-methoxyphenyl)-oxy]butyroyl]amino-3-(4-methoxy)phenylpropanoylmethylamide]"
0.25,0.0054,CNC(=O)[C@H](Cc1ccc(OC)cc1)NC(=O)[C@H](CCCOc1ccc(OC)cc1)CC(=O)O [Compound 18]
0.076,0.013,"COc1ccc(C[C@H](NC(=O)[C@H](CCCOc2ccc(OC)cc2)CC(=O)O)C(=O)NC(C)(C)C)cc1 [Compound 19, (2S)-2-[(2R)-2-(1'Carboxymethyl)-5-[(methoxyphenyl)oxy]pentanoyl]amino-3-(4-methoxy)phenylpropanoyl-tert-butylamide]"
0.016,0.0029,COc1ccc(C[C@H](NC(=O)[C@H](CCCOc2ccc(OC)cc2)CC(=O)O)C(=O)NCCS(N)(=O)=O)cc1 [Compound 20]
0.16,0.052,"CNC(=O)[C@H](Cc1ccc(OC)cc1)NC(=O)[C@H](CCCCOc1ccc(OC)cc1)CC(=O)O [Compound 21, (2S)-2-[(2R)-2-(1'-Carboxymethyl)-6-[(4-methoxyphenyl)-oxy]hexanoyl]amino-3-(4-methoxy)phenylpropanoylmethylamide]"
0.14,0.0095,"CCOc1ccc(C[C@H](NC(=O)[C@H](CCCOc2ccc(OC)cc2)CC(=O)O)C(=O)NC)cc1 [Compound 22, (2S)-2-[(2R)-2-(1'-Carboxymethyl)-5-[(4-methoxyphenyl)-oxy]pentanoyl]amino-3-(4-ethoxy)phenylpropanoylmethylamide]"
0.2,0.051,"CCOc1ccc(C[C@H](NC(=O)[C@H](CCCCOc2ccc(OC)cc2)CC(=O)O)C(=O)NC)cc1 [Compound 23, (2S)-2-[(2R)-2-(1'-Carboxymethyl)-6-[(4-methoxyphenyl)oxy]hexanoyl]amino-3-(4-ethoxy)phenylpropanoylmethylamide]"
0.14,0.0072,"CNC(=O)[C@@H](NC(=O)[C@H](CCCOc1ccc(OC)cc1)CC(=O)O)C(C)(C)C [Compound 24, N-[(2R)-2-(1'-Carboxymethyl)-5-[(4-methoxyphenyl)oxy]pentanoyl]-L-tert-leucine N-Methylamide]"
0.2,0.028,"COc1ccc(OCCC[C@H](CC(=O)O)C(=O)N[C@H](C(=O)NC(C)(C)C)C(C)(C)C)cc1 [Compound 25, N-[(2R)-2-(1'-Carboxymethyl)-5-[(4-methoxyphenyl)oxy]pentanoyl]-L-tert-leucine N-tert-Butylamide]"
0.048,0.0065,COc1ccc(OCCC[C@H](CC(=O)O)C(=O)N[C@H](C(=O)NCCS(N)(=O)=O)C(C)(C)C)cc1 [Compound 26]
